# Key:
# PARP1 cleavage = assay: Western blot of PARP1 cleavage in REN cells; assay type: cell-based, human
# Description: (§1) Cells were extracted with 1% NP-40 lysis buffer (1% NP-40, 150 mM NaCl, 50 mM Tris-HCl pH 8.5 mM EDTA, 10 mM NaF, 10 mM Na4P2O7, 0.4 mM Na3VO4) with freshly added protease inhibitors (10 μg/ml leupeptin, 4 μg/ml pepstatin and 0.1 Unit/ml aprotinin). For protein extraction from tissues, ˜100 mg of each sample were homogenized, using a Potter-Elvehjem homogenizer device, in 1% NP-40 lysis buffer. Lysates were centrifuged at 13.000×g for 10 minutes at 4° C. and the supernatants were collected and assayed for protein concentration with the Bio-Rad protein assay method.
# (§2) Proteins were separated by SDS-PAGE under reducing conditions. Following SDS-PAGE, proteins were transferred to nitrocellulose, reacted with specific antibodies and then detected with peroxidase-conjugate secondary antibodies and chemioluminescent ECL reagent. Densitometric analysis was performed using the GS 250 Molecular Image (Bio-Rad).
# Levels of PARP1, cleaved PARP1, AKT and phosphorylated AKT in REN cells treated for 24 hours with cisplatin (25, 50 and 100 μM) or pre-treated 2 hours with Compound (I) (10 nM) followed by wash-off and continued growth in normal medium±cisplatin (25, 50 and 100 μM), for an additional 24 hours were also determined by Western blot analysis and relative densitometry. Total AKT and Tubulin staining were used for normalization. PARP1 cleavage was analysed as it is an indicator of apoptotic cell death. As increased AKT activity has been implicated in the control of proliferation, apoptosis and cisplatin resistance (Pinton G., et al, PLoS One (2012) 7:e36856), AKT activation status following different treatments was also analysed.
# MMB cells = assay: Proliferation assay in MMB cells; assay type: cell-based; conditions: 10 nM single agent, 24 and 48 hours
# Description: (§3) Cells were seeded at a density of 10×10^4 cells/well in 6-well plates in RPMI medium supplemented with 10% FBS, 100 μg/ml streptomycin and 10 μg/ml penicillin and incubated over-night at 37° C. in a humidified environment containing 5% CO2 to allow adherence. Following treatment cells were trypsinized and stained with Trypan blue. The number of cells considered viable (unstained cells) was counted in a Bürker haemocytometer within 5 minutes after staining.
# [1] = Treatment toxicity by mice body weights; assay type: in vivo; conditions: 10 mg/kg/day s.c. during drug administration
# Description: Animals. CD1 nude mice (males, 6 weeks old; Charles River, Calco, Italy) received intraperitoneal (i.p.) injections of 2×10^6 luciferase transduced REN cells in 0.5 mL of RPMI medium. After anesthetization and i.p. injections of 0.3 mL of 15 mg/mL D-luciferin, tumor dimension and localization of luminescent cells was monitored using the In Vivo Imaging System (IVIS) series (Xenogen Corporation, Hopkinton, Mass., USA). Regions of interest were identified around the tumor sites and were quantified as total photon counts using Living Image software (Xenogen Corporation). The values of tumor sizes were obtained, subtracting luminescence signals of each weekly measurement by the average of all animals within a treatment group on the 15th day after inoculation (day when treatment started). To evaluate treatment toxicity, mice were weighed at the start and end of treatments. Mice were killed and necropsied after 20 days of treatment. In vivo experiments were approved by Istituto Scientifico Tumori (Genoa, Italy) ethical committee and conform to the relevant regulatory standards. Mice were maintained and handled under aseptic conditions, and were allowed access to food and water ad libitum.
# REN cells = assay: Cell cycle analysis (propidium iodide, flow cytometry) in REN cells; assay type: cell-based, human; conditions: 10 nM 2 hours pre-treatment, then 100 μM cisplatin 24 hours
# Description: For cell cycle/apoptosis analysis, 5×10^5 cells were seeded in tissue culture plates and treated with 100 μM cisplatin for 24 hours or pre-treated for 2 hours with 10 nM Compound (I) followed by wash-off and continued growth in normal medium±100 μM cisplatin, for additional 24 hours at 37° C. in a 5% CO2 atmosphere. After incubation, detached and suspended cells were harvested in complete RPMI and centrifuged at 500×g for 10 minutes. Pellets were washed with PBS, fixed in ice-cold 75% ethanol at 4° C., treated with […] RNAse A for 1 hour at 37° C., stained with 25 μg/mL propidium iodide and finally analyzed by using a flow cytometer FACS (Becton Dickinson, San Jose, Calif., USA) and Modfit software (Verity Software House, Topsham, Me., USA).
# REN cells were treated for 24 hours with 100 μM cisplatin or pre-treated 2 hours with 10 nM Compound (I) followed by wash-off and continued growth in normal medium±100 μM cisplatin, for an additional 24 hours. Cell cycle analysis was performed as described above. Control cultures were maintained in normal growth medium. After treatments, cells were stained with propidium iodide and analysed for cellular DNA content by flow cytometry.
# AKT phosphorylation = assay: Western blot of AKT phosphorylation in MMP cells; assay type: cell-based, human; conditions: 10 nM 2 hours pre-treatment, ± 50 μM cisplatin
# Description: as §1, §2
# Levels of PARP1, cleaved PARP1, AKT and phosphorylated AKT in the MMP cell cultures at 24 hours were also determined by Western blot analysis.
# MSTO-211H/ERβ cells = assay: Proliferation assay in MSTO-211H cells transfected with ERβ expression vector; assay type: cell-based; conditions: 10 nM, 24 and 48 hours; transient transfection with ERβ expression vector
# Text: The epithelioid MPM derived REN cell line was isolated, characterized and provided by Dr. Albelda S. M. (University of Pennsylvania, Philadelphia; PA, USA). The biphasic MSTO-211H and the mesothelial MET5A cell lines were obtained from the Istituto Scientifico Tumori (IST) Cell-bank, Genoa, Italy; the MMB and MMP cell lines have been derived from pleural effusions of patients with MPM and stabilized in culture (Cacciotti P, et al., Proc Natl Acad Sci USA 2001; 98:12032-7; Pinton G., et al, Cancer Res 2009; 69:4598-604); the H2596 cell line was produced by Dr. H. I. Pass from surgical specimens derived from patients with resected MPM (Pass H. I., et al., Ann Thorac Surg 1995; 59(4):835-44). Cells were grown in RPMI medium supplemented with 10% FBS, […] streptomycin and 10 μg/ml penicillin at 37° C. in a humidified environment containing 5% CO2. Mycoplasma infection was excluded by the use of Mycoplasma Plus™ PCR Primer Set kit from Stratagene (La Jolla, Calif., USA). […]
# as §3, with “Following treatment cells were trypsinized and stained with Trypan blue.” left out
# H2596 cells = assay: Proliferation assay in H2596 cells; assay type: cell-based; conditions: 10 nM single agent, 24 and 48 hours; very low ERβ
# Description: as §3
structure (smiles),measurement,setting,value
Cc1noc(C)c1-c1c(/C(N)=N/O)c2ccccc2n1-c1ccc(O)cc1 [Compound (I)],"appearance of cleaved PARP1, pre-treatment then cisplatin","PARP1 cleavage; 10 nM 2 hours prior to cisplatin (25, 50, 100 μM) 24 hours",greatest effect on the appearance of cleaved PARP1
same,"PARP1 cleavage, single agent",PARP1 cleavage; agent alone,neither cisplatin nor Compound (I) alone resulted in significant PARP1 cleavage
same,"inhibition of proliferation, MMB cells",MMB cells,significantly (p≤0.05) inhibited proliferation
same,toxicity assessed by changes of mice body weights,[1],not to be toxic
same,cell cycle phase distribution,REN cells,significant and efficient blockage of the cell cycle in the G0/G1 phase and inhibition of cells entering the S-phase
same,percentage of dead cells,REN cells,significant higher percentage of dead cells
same,AKT phosphorylation in MMP cells,AKT phosphorylation,significantly reduced AKT phosphorylation both in the absence and in the presence of cisplatin
same,"inhibition of proliferation, MSTO-211H/ERβ cells",MSTO-211H/ERβ cells,sensitized these cells to Compound (I)
same,"inhibition of proliferation, H2596 cells",H2596 cells,weak response

# Source: patent US9974776B2, “Estrogen receptor beta agonists for use in treating mesothelioma” (Karo Pharma AB, priority 2013, dated 2018)
